Measurements published in ChEMBL document CHEMBL4602647, “Protective effects of 10,11-dihydro-5H-dibenzo[b,f]azepine hydroxamates on vascular cognitive impairment” (Eur J Med Chem, 2020).
Active and inactive are the calls of the source. No cut-off for these calls is given here.

Tests used:
[1] = Volume of distribution at steady state in Sprague-Dawley rat at 2 mg/kg, iv measured up to 24 hrs; type: ADME, organism-based; details: in vivo, read-out: Vdss
[2] = Microsomal stability in rat liver microsomes assessed as parent compound remaining measured after 30 mins; type: ADME, Microsome; details: read-out: Stability
[3] = Oral bioavailability in Sprague-Dawley rat at 10 mg/kg measured up to 24 hrs; type: ADME, organism-based; details: in vivo
[4] = Tmax in Sprague-Dawley rat at 10 mg/kg, po measured up to 24 hrs; type: ADME, organism-based; details: in vivo
[5] = biological target: Histone deacetylase 3/Nuclear receptor corepressor 2 (HDAC3/NCoR2) (Homo sapiens, UniProt O15379); experiment: biochemical; type: cell-based
Histone deacetylase 3/Nuclear receptor corepressor 2 (HDAC3/NCoR2), sequence (O15379 whole entry): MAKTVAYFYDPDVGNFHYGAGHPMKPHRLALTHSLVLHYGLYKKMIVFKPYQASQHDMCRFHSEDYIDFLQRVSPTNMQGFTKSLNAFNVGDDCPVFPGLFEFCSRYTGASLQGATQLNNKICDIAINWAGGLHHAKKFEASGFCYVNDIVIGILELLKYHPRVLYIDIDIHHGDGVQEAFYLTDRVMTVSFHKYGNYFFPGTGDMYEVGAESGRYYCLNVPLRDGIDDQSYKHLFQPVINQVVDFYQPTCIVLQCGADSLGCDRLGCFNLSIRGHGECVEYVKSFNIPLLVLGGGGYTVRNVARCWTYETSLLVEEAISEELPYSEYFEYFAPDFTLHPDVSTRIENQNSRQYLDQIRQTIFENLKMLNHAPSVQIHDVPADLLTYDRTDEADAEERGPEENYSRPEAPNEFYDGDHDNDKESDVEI
Histone deacetylase 3/Nuclear receptor corepressor 2 (HDAC3/NCoR2), sequence (Q9Y618 whole entry, further chain): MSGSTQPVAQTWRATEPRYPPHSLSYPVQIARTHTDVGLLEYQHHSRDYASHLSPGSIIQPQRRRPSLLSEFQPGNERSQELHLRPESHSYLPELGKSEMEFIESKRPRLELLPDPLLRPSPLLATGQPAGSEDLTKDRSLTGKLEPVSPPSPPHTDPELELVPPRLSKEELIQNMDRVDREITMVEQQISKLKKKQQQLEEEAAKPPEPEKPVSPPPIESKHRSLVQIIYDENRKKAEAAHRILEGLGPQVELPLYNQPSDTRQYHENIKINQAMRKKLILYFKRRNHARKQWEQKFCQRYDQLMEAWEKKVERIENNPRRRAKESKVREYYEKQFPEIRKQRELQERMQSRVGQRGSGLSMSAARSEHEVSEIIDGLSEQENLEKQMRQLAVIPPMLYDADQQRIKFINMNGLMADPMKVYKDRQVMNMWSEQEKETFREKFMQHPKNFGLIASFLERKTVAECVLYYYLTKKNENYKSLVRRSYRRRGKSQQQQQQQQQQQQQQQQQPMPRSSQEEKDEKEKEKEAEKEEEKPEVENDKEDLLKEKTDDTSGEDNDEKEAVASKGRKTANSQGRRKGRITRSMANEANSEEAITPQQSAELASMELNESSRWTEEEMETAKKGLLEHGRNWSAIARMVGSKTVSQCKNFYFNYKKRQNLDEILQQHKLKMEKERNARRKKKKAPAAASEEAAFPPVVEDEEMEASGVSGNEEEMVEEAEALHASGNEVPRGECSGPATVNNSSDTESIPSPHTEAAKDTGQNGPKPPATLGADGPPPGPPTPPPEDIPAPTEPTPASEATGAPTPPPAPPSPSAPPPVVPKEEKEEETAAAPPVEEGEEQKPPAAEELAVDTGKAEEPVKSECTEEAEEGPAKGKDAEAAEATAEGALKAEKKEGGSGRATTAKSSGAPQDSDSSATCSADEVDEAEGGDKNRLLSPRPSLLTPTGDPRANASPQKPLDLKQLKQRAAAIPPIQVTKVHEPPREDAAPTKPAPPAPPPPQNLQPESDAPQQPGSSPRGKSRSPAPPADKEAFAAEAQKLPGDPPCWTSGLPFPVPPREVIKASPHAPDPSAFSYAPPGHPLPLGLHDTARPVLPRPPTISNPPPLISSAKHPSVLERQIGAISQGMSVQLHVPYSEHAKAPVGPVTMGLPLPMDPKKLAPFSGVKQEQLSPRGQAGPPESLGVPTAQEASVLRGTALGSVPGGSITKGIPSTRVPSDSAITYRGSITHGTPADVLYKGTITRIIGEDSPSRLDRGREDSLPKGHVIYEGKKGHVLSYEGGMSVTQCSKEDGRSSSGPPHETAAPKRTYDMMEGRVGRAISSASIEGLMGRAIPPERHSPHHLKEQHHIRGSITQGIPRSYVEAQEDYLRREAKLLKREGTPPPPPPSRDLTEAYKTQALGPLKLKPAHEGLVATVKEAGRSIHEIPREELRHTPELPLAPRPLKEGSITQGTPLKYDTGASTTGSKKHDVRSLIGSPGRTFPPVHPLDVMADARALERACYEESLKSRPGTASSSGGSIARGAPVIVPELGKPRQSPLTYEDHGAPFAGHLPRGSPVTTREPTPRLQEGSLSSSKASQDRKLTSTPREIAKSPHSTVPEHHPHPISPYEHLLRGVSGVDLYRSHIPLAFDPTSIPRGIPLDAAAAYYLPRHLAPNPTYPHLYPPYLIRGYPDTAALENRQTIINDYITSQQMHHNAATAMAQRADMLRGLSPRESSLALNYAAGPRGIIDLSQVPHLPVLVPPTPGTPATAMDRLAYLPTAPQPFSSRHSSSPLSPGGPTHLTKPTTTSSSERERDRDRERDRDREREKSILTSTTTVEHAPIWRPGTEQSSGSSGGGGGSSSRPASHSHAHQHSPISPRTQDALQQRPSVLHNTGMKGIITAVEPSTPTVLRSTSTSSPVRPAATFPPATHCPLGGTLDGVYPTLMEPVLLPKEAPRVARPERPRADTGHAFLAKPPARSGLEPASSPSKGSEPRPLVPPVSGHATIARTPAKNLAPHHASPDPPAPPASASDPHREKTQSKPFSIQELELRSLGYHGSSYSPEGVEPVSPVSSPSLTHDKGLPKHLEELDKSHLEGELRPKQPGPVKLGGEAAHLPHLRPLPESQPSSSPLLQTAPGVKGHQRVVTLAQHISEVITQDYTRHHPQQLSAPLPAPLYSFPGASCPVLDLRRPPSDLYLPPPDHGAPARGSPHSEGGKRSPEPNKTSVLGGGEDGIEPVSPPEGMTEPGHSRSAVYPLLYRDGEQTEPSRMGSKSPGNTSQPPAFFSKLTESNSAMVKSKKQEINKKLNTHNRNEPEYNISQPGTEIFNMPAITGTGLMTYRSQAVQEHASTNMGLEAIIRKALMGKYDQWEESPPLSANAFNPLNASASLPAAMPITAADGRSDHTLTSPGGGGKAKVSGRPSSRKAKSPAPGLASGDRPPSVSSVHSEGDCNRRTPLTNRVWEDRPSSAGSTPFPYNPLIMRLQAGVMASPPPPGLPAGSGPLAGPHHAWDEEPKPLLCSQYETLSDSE

[6] = system: Mus musculus; experiment: Anti-vascular cognitive impairment activity against bilateral common carotid artery occlusion-induced vascular dementia C57BL/6J mouse model assessed as ratio of cerebral blood flow in left parietal area at 25 mg/kg, ip administered post surgery measured after 3 months(reference value: 0.792 +/- 0.029); type: functional
[7] = system: Mus musculus; experiment: (§1) Anti-vascular cognitive impairment activity against bilateral common carotid artery occlusion-induced vascular dementia C57BL/6J mouse model assessed as reversal of hippocampal atrophy by measuring increase in hippocampal volume at 25 mg/kg, ip administered post surgery measured after 3 months by 7T-MRI analysis; type: functional, organism-based
[8] = biological target: Histone deacetylase 1 (Homo sapiens, UniProt Q13547); experiment: Inhibition of recombinant full length human C-terminal FLAG/His-tagged HDAC1 (1 to 482 residues) expressed in baculovirus infected Sf21 cells using RHK-K(Ac)-AMC as substrate measured after 60 mins by fluorimetric assay; details: read-out: IC50
Histone deacetylase 1, sequence (Q13547 whole entry, the tested form may be a part): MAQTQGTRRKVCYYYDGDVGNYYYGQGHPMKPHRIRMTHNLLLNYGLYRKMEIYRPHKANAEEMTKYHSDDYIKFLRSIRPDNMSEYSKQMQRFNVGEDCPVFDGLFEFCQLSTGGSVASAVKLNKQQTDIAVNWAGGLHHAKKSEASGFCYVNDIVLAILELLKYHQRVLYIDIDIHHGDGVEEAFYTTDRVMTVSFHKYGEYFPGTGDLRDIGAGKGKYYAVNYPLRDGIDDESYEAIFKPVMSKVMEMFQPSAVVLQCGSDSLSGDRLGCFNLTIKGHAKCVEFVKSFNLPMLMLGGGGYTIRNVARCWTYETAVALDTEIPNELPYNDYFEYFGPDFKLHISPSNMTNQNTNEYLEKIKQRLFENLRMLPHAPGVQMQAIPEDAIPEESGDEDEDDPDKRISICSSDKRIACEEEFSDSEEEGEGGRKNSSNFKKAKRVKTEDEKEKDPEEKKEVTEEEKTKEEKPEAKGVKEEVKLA

[9] = Microsomal stability in human liver microsomes assessed as parent compound remaining measured after 30 mins; type: ADME, Microsome; details: read-out: Stability
[10] = system: Mus musculus; experiment: Upregulation of acetylated H3K14 protein expression in left side cortex of bilateral common carotid artery occlusion-induced vascular dementia C57BL/6J mouse model at 25 mg/kg, ip measured after 3 months by Western blot analysis; type: functional, organism-based
[11] = biological target: Histone deacetylase 9 (Homo sapiens, UniProt Q9UKV0); experiment: Inhibition of human HDAC9 using fluorogenic Boc-Lys(trifluoroacetyl)-AMC as substrate by fluorescence based analysis
[12] = Cmax in Sprague-Dawley rat at 10 mg/kg, po measured up to 24 hrs; type: ADME, organism-based; design: dose 10 mg/kg, route oral; details: in vivo
[13] = system: Mus musculus; experiment: Anti-vascular cognitive impairment activity against bilateral common carotid artery occlusion-induced vascular dementia C57BL/6J mouse model assessed as improvement in short-term non-spatial working memory by measuring increase in novel object recognition at 25 mg/kg, ip administered post surgery measured after 1 to 3 months by novel object recognition test; type: functional, organism-based
[14] = system: Mus musculus; experiment: as §1, with “ratio of size of hippocampus to lateral ventricle” for “hippocampal volume”; type: functional, organism-based
[15] = biological target: Histone deacetylase 5 (Homo sapiens, UniProt Q9UQL6); experiment: Inhibition of recombinant human C-terminal His-tagged HDAC5 (657 to 1123 residues) expressed in baculovirus infected insect cells using Boc-K(Ac)-AMC as substrate after 60 mins by fluorimetry analysis
Histone deacetylase 5, sequence (Q9UQL6 whole entry, the tested form may be a part): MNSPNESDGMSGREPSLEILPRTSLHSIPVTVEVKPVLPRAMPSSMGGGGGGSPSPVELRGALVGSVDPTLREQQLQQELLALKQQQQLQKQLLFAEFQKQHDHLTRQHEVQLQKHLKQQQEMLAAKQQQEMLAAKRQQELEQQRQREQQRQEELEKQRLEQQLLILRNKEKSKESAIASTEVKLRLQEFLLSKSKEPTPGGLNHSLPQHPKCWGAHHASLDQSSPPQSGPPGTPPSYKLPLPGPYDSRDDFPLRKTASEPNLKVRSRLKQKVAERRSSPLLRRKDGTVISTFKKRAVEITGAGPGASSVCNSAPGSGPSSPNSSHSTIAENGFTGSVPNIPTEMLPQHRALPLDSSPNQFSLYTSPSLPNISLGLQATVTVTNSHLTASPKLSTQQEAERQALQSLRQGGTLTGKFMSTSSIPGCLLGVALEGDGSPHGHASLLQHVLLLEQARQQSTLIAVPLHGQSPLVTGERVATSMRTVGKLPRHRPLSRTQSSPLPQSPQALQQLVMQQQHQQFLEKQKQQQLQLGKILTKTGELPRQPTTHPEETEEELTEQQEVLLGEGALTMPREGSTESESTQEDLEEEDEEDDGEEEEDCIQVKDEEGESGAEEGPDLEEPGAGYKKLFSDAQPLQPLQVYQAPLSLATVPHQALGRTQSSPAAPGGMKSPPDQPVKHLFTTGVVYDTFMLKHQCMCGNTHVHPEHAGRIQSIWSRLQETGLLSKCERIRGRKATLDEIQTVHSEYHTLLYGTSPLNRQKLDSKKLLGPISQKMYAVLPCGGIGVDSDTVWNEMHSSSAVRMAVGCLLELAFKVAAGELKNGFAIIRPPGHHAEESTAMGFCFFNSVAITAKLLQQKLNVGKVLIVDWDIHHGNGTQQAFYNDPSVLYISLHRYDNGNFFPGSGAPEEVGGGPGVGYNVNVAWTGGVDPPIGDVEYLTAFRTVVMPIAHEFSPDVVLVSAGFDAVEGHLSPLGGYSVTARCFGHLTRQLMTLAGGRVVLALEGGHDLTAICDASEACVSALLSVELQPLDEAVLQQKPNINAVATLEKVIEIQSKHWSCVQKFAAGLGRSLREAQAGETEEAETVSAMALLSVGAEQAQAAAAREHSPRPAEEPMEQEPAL

[16] = biological target: T1, Histone deacetylase 8 (Homo sapiens, UniProt Q9BY41); experiment: Inhibition of recombinant C-terminal His-tagged and N-terminal Streptavidin2-tagged human HDAC8 (1 to 377 residues) expressed in baculovirus infected insect cells using RHK-K(Ac)-AMC as substrate after 60 mins by fluorescence assay
T1 sequence (Q9BY41 whole entry): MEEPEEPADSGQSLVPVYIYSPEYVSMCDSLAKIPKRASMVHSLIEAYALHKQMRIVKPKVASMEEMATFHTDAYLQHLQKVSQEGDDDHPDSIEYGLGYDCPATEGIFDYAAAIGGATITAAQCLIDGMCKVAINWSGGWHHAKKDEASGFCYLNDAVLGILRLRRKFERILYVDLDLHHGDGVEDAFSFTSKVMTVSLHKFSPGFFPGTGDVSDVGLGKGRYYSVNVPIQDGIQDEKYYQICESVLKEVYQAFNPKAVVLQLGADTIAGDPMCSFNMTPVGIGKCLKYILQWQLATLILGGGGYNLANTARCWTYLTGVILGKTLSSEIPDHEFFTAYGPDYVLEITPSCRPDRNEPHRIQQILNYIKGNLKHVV

[17] = system: Mus musculus; experiment: Upregulation of acetylated H3K14 protein expression in right side cortex of bilateral common carotid artery occlusion-induced vascular dementia C57BL/6J mouse model at 25 mg/kg, ip measured after 3 months by Western blot analysis; type: functional, organism-based
[18] = Aqueous solubility of compound in water incubated at 37 degree C by LC-MS analysis; type: physicochemical
[19] = Half life in Sprague-Dawley rat at 10 mg/kg, po measured up to 24 hrs; type: ADME, organism-based; details: in vivo

- Vd [1]: 13.8 L/kg
- remaining at 0.5 h [2]: 37.4%
- bioavailability [3]: 1.8%
- Tmax [4]: 3.5 h
- IC50 [5]: 2.86 µM
- IC50 [8]: 3.82 µM
- remaining at 0.5 h [9]: 81.5%
- IC50 [11]: Not Active
- Cmax [12]: 8.9 ng/mL
- IC50 [15]: 6.27 µM
- IC50 [16]: 0.533 µM
- solubility [18]: < 1 µg/mL
- half-life [19]: 10.9 h
Compound: O=C(/C=C/c1ccc(CNCCCN2c3ccccc3CCc3ccc(Cl)cc32)cc1)NO
- Ratio [6]: 0.896
- Activity [7]: Active
- Activity [10]: Active
- Activity [13]: Active
- Activity [14]: Active
- Activity [17]: Active
